In patent publication US10292991B2, “Small molecule therapeutic compounds that reduce the incidence of intracerebral hemorrhage and brain microhemorrhages” (St. Michaels Hospital, priority 2016, dated 2019):

Legend:
[1] = system: ICH induced by anti-β3 integrin serum in neonatal mice; assay: Anti-β3 integrin mouse model of intracerebral hemorrhage; assay type: in vivo, β3+/− mice (neonates)
Excerpt: An anti-β3 integrin model of intracerebral hemorrhage (ICH) was generated according to our previously reported methods (Yougbare I, Lang S, Yang H et al. Maternal anti-platelet beta3 integrins impair angiogenesis and cause intracranial hemorrhage. J Clin Invest 2015; 125:1545-1556). Briefly, serum containing anti-β3 antibodies was generated by immunizing β3−/− female mice with gel-filtered wild type platelets via tail-vein injections twice a week. To detect anti-β3 antibody, blood was collected from the saphenous vein of immunized female mice and left to clot. […]
For the integrin ICH model, brains were taken out of the skull, cut at the mid-coronal position and assessed in a binary manner for whether or not there was any evidence of ICH. […]
Brains were scanned using 7T Burker MRI with 16-channel solenoid coils. […] Following the reconstruction of images and applying image distortion correction algorithms, all brains were processed and analyzed for total volume of brain and total volume of hemorrhage. Quantification was done using percentage of bleeding (normalized to each brain size). […] Lastly, quantification was done in a blinded fashion. All quantifications and 3D reconstructions were performed using a combination of Display and Amira processing software.

[2] = system: bbh mutant zebrafish (mutation in βPix), spontaneous ICH; assay: bbh (bubblehead) mutant genetic model of brain hemorrhage; assay type: in vivo, zebrafish (Danio rerio); details: Danio rerio, read-out: EC50 to rescue brain hemorrhage, bbh Mutant Model
Excerpt: A specific zebrafish line with a gene mutation called bubblehead (bbh) was used. This line has spontaneous ICH. Bubblehead phenotype is caused by a mutation in βPix. Adult homozygous zebrafish were viable and fertile. […] More than 85% of zebrafish larvae display an ICH phenotype.

[3] = system: zebrafish embryos treated with LPS; assay: LPS-induced ICH/BMH and mortality in zebrafish embryos; assay type: in vivo; details: 1 μmol/L in fish water; LPS 200 mg/mL; preliminary data
Procedure: Experiment 1: LPS-induced ICH/BMH in zebrafish embryos. The lead compounds will be tested in a LPS model of ICH/BMH to determine if rescue of the ICH/BMH phenotype is a general property of these compounds or it is specific to statin-induced ICH/BMH. […] LPS concentration used was 200 mg/mL. […] Experiments are ongoing to define the rescuing effects of artemether on LPS-induced brain hemorrhage. Double transgenic zebrafish (Gata1:DsRed/Flk1:GFP) with green fluorescent vessel and red fluorescent red blood cells are used. Arrow points to hemorrhage.

## CO[C@H]1O[C@@H]2O[C@@]3(C)CC[C@H]4[C@H](C)CC[C@@H]([C@H]1C)[C@@]24OO3 [Artemether]
[1]; 25 mg/kg i.p. with anti-β3 sera at P2, n=24, model control 77%
  ICH incidence: 47%
[1]; preliminary data, data not shown, vs controls
  Total volume of ICH (MRI): reduced
[2]
  EC50: 37.5 nM
[3]
  Effect on fish survival (LPS-induced mortality): protective effect
